Here are results for three molecules from patent publication US4271073A, “6-Substituted-9-(2-hydroxyethyl)-1,2,3,4-tetrahydro carbazol-1-one” (Cassella Aktiengesellschaft, priority 1979, dated 1981).

As usually defined, the ED50 is the dose that gives a 50% effect, or the effect in half of the subjects.

The nature of the assay: Antagonism Tetrabenazine (antidepressive action). The assay is classed as in vivo. To be noted: species, route and unit inferred, read-out: ED50 Antagonism Dosage Tetrabenazine.

Regarding `Cc1ccc2c(c1)c1c3n2CCN=C3CCC1.Cl` [Example 1, 8-methyl-2,4,5,6-tetrahydro-1H-pyrazino[3,2,1-jk]carbazole-hydrochloride], the ED50 turned out to be 4 mg/kg.

Turning to `Cc1ccc2c(c1)c1c3n2CCNC3CCC1.Cl` (stereo not drawn) [8-methyl-2,3,3a,4,5,6-hexahydro-1H-pyrazino[3,2,1-jk]carbazole-hydrochloride, reference compound], the ED50 stood at 14 mg/kg.

For the molecule `COc1ccc2c(c1)c1c3n2CCN=C3CCC1.Cl` [Example 2, 8-methoxy-2,4,5,6-tetrahydro-1H-pyrazino[3,2,1-jk]carbazole-hydrochloride], the ED50 came to 2 mg/kg.
